Data taken from patent US9326506B2, “Preparation method, agricultural composition and applications of natural brassinolide analogs” (CHENGDU NEWSUN CROPSCIENCE CO., LTD, priority 2012, dated 2016).

Tested on: rice seed
Test: Salt tolerance assay: germination of rice seed under high salt environment
Type: in vivo
Excerpt: According to a salt tolerance assay, we measured germination of rice seed under high salt environment to determine effects of the natural brassinolide analogues on the salt tolerance of a plant.
The natural brassinolide analogues, BR1, BR2, BR3, BR4, BR5 and BR6, used herein, were those prepared by the method of Example 1. And BR1, BR2, BR3, BR4, BR5 and BR6 were mixed into a mixture of brassinolide analogues (referred to as “BRs”, in which the weight ratio of BR1:BR2:BR3:BR4:BR5:BR6 is 0.4:0.4:0.4:0.4:0.4:98). Respectively the analogues and the mixture were dissolved into 95% (V/V) ethanol solution, and then diluted with pure water to 1 mg/L, 0.1 mg/L, 0.01 mg/L, 0.001 mg/L and 0.0001 mg/L. In addition, pure water was used as a control. Furthermore, NaCl was added to the above solutions containing different concentrations of the natural brassinolide analogues or pure water respectively, and the concentrations of the salt are 300, 400, 500 and 600 mg/L respectively.
After rice seeds were disinfected by using 5% sodium hypochlorite solution treatment, they were rinsed with distilled water until their pH>7, placed into a petri dish in a dark incubator, and cultured at 30° C.±2° C. by using the above solutions containing different concentrations of the natural brassinolide analogues or pure water for observing the germination and calculating germination rates. The results are shown in tables 4-0˜4-4, which indicate that relative to the control, each of the natural brassinolide analogues and the mixture were capable of increasing germination rates of rice under high salt environment so as to enhance the salt tolerance of a plant; and substantially the enhancement of the germination rates was positively correlated to the concentrations of the natural brassinolide analogues and the mixture.

[1] = sample 0.0001 mg/l, salt 300 mg/l
[2] = sample 0.0001 mg/l, salt 400 mg/l
[3] = sample 0.0001 mg/l, salt 500 mg/l
[4] = sample 0.0001 mg/l, salt 600 mg/l
[5] = sample 0.001 mg/l, salt 300 mg/l
[6] = sample 0.001 mg/l, salt 400 mg/l
[7] = sample 0.001 mg/l, salt 500 mg/l
[8] = sample 0.001 mg/l, salt 600 mg/l
[9] = sample 0.01 mg/l, salt 300 mg/l
[10] = sample 0.01 mg/l, salt 400 mg/l
[11] = sample 0.01 mg/l, salt 500 mg/l
[12] = sample 0.01 mg/l, salt 600 mg/l
[13] = rice seed, sample 0.0001 mg/l, salt (NaCl) 300 mg/l
[14] = rice seed, sample 0.0001 mg/l, salt (NaCl) 400 mg/l
[15] = rice seed, sample 0.0001 mg/l, salt (NaCl) 500 mg/l
[16] = rice seed, sample 0.0001 mg/l, salt (NaCl) 600 mg/l
[17] = rice seed, sample 0.001 mg/l, salt (NaCl) 300 mg/l
[18] = rice seed, sample 0.001 mg/l, salt (NaCl) 400 mg/l
[19] = rice seed, sample 0.001 mg/l, salt (NaCl) 500 mg/l
[20] = rice seed, sample 0.001 mg/l, salt (NaCl) 600 mg/l
[21] = rice seed, sample 0.01 mg/l, salt (NaCl) 300 mg/l
[22] = rice seed, sample 0.01 mg/l, salt (NaCl) 400 mg/l
[23] = rice seed, sample 0.01 mg/l, salt (NaCl) 500 mg/l
[24] = rice seed, sample 0.01 mg/l, salt (NaCl) 600 mg/l
[25] = rice seed, sample 0.1 mg/l, salt (NaCl) 300 mg/l
[26] = rice seed, sample 0.1 mg/l, salt (NaCl) 400 mg/l
[27] = rice seed, sample 0.1 mg/l, salt (NaCl) 500 mg/l
[28] = rice seed, sample 0.1 mg/l, salt (NaCl) 600 mg/l
[29] = rice seed, sample 1 mg/l, salt (NaCl) 300 mg/l
[30] = rice seed, sample 1 mg/l, salt (NaCl) 400 mg/l
[31] = rice seed, sample 1 mg/l, salt (NaCl) 500 mg/l
[32] = rice seed, sample 1 mg/l, salt (NaCl) 600 mg/l

Structure (SMILES): CC(C)[C@H](C)[C@@H](O)[C@H](O)[C@@H](C)[C@H]1CCC2C3COC(=O)C4C[C@H](O)[C@H](O)C[C@]4(C)C3CC[C@@]21C (stereo partly drawn) [BR1]
- Germination rate [1]: 51%
- Germination rate [2]: 48%
- Germination rate [3]: 42%
- Germination rate [4]: 36%
- Germination rate [5]: 53%
- Germination rate [6]: 49%
- Germination rate [7]: 45%
- Germination rate [8]: 37%
- Germination rate [9]: 55%
- Germination rate [10]: 52%
- Germination rate [11]: 47%
- Germination rate [12]: 39%
- Germination rate (sample 0.1 mg/l, salt 300 mg/l): 58%
- Germination rate (sample 0.1 mg/l, salt 400 mg/l): 52%
- Germination rate (sample 0.1 mg/l, salt 500 mg/l): 49%
- Germination rate (sample 0.1 mg/l, salt 600 mg/l): 40%
- Germination rate (sample 1 mg/l, salt 300 mg/l): 62%
- Germination rate (sample 1 mg/l, salt 400 mg/l): 55%
- Germination rate (sample 1 mg/l, salt 500 mg/l): 50%
- Germination rate (sample 1 mg/l, salt 600 mg/l): 42%

Structure (SMILES): CC[C@@H](C(C)C)[C@@H](O)[C@H](O)[C@@H](C)[C@H]1CCC2C3COC(=O)C4C[C@H](O)[C@H](O)C[C@]4(C)C3CC[C@@]21C (stereo partly drawn) [BR2]
- Germination rate [1]: 45%
- Germination rate [2]: 41%
- Germination rate [3]: 39%
- Germination rate [4]: 36%
- Germination rate [5]: 50%
- Germination rate [6]: 42%
- Germination rate [7]: 40%
- Germination rate [8]: 36%
- Germination rate [9]: 50%
- Germination rate [10]: 51%
- Germination rate [11]: 47%
- Germination rate [12]: 39%
- Germination rate (sample 0.1 mg/l, salt 300 mg/l): 50%
- Germination rate (sample 0.1 mg/l, salt 400 mg/l): 50%
- Germination rate (sample 0.1 mg/l, salt 500 mg/l): 46%
- Germination rate (sample 0.1 mg/l, salt 600 mg/l): 38%
- Germination rate (sample 1 mg/l, salt 300 mg/l): 58%
- Germination rate (sample 1 mg/l, salt 400 mg/l): 51%
- Germination rate (sample 1 mg/l, salt 500 mg/l): 46%
- Germination rate (sample 1 mg/l, salt 600 mg/l): 38%

Structure (SMILES): C=C(C(C)C)[C@@H](O)[C@H](O)[C@@H](C)[C@H]1CCC2C3COC(=O)C4C[C@H](O)[C@H](O)C[C@]4(C)C3CC[C@@]21C (stereo partly drawn) [BR3]
- Germination rate [1]: 50%
- Germination rate [2]: 45%
- Germination rate [3]: 39%
- Germination rate [4]: 32%
- Germination rate [5]: 50%
- Germination rate [6]: 43%
- Germination rate [7]: 40%
- Germination rate [8]: 33%
- Germination rate [9]: 51%
- Germination rate [10]: 50%
- Germination rate [11]: 47%
- Germination rate [12]: 39%
- Germination rate (sample 0.1 mg/l, salt 300 mg/l): 50%
- Germination rate (sample 0.1 mg/l, salt 400 mg/l): 50%
- Germination rate (sample 0.1 mg/l, salt 500 mg/l): 41%
- Germination rate (sample 0.1 mg/l, salt 600 mg/l): 38%
- Germination rate (sample 1 mg/l, salt 300 mg/l): 52%
- Germination rate (sample 1 mg/l, salt 400 mg/l): 46%
- Germination rate (sample 1 mg/l, salt 500 mg/l): 40%
- Germination rate (sample 1 mg/l, salt 600 mg/l): 38%

Structure (SMILES): CC(C)[C@H](C)[C@@H](O)[C@H](O)[C@@H](C)[C@H]1CCC2C3CC(=O)C4C[C@H](O)CC[C@]4(C)C3CC[C@@]21C (stereo partly drawn) [BR4]
- Germination rate [1]: 50%
- Germination rate [2]: 47%
- Germination rate [3]: 42%
- Germination rate [4]: 36%
- Germination rate [5]: 51%
- Germination rate [6]: 49%
- Germination rate [7]: 43%
- Germination rate [8]: 37%
- Germination rate [9]: 55%
- Germination rate [10]: 52%
- Germination rate [11]: 47%
- Germination rate [12]: 39%
- Germination rate (sample 0.1 mg/l, salt 300 mg/l): 58%
- Germination rate (sample 0.1 mg/l, salt 400 mg/l): 50%
- Germination rate (sample 0.1 mg/l, salt 500 mg/l): 49%
- Germination rate (sample 0.1 mg/l, salt 600 mg/l): 40%
- Germination rate (sample 1 mg/l, salt 300 mg/l): 60%
- Germination rate (sample 1 mg/l, salt 400 mg/l): 55%
- Germination rate (sample 1 mg/l, salt 500 mg/l): 50%
- Germination rate (sample 1 mg/l, salt 600 mg/l): 41%

Structure (SMILES): CC(C)C[C@@H](O)[C@H](O)[C@@H](C)[C@H]1CCC2C3CC(=O)C4C[C@H](O)[C@H](O)C[C@]4(C)C3CC[C@@]21C (stereo partly drawn) [BR5]
- Germination rate [13]: 50%
- Germination rate [14]: 48%
- Germination rate [15]: 42%
- Germination rate [16]: 36%
- Germination rate [17]: 52%
- Germination rate [18]: 49%
- Germination rate [19]: 45%
- Germination rate [20]: 38%
- Germination rate [21]: 56%
- Germination rate [22]: 51%
- Germination rate [23]: 47%
- Germination rate [24]: 39%
- Germination rate [25]: 58%
- Germination rate [26]: 52%
- Germination rate [27]: 43%
- Germination rate [28]: 40%
- Germination rate [29]: 62%
- Germination rate [30]: 55%
- Germination rate [31]: 50%
- Germination rate [32]: 42%

Structure (SMILES): CC(C)(O)CC[C@@H](O)[C@](C)(O)[C@H]1CC[C@@]2(O)[C@@H]3CC(=O)[C@@H]4C[C@@H](O)[C@@H](O)C[C@]4(C)[C@H]3CC[C@]12C [BR6]
- Germination rate [13]: 52%
- Germination rate [14]: 48%
- Germination rate [15]: 42%
- Germination rate [16]: 36%
- Germination rate [17]: 53%
- Germination rate [18]: 50%
- Germination rate [19]: 44%
- Germination rate [20]: 37%
- Germination rate [21]: 55%
- Germination rate [22]: 51%
- Germination rate [23]: 46%
- Germination rate [24]: 39%
- Germination rate [25]: 58%
- Germination rate [26]: 53%
- Germination rate [27]: 47%
- Germination rate [28]: 42%
- Germination rate [29]: 68%
- Germination rate [30]: 55%
- Germination rate [31]: 52%
- Germination rate [32]: 44%
